Data: PubChem BioAssay (NCI)
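Results reflect a 48-hour exposure of cells in 96-well plates to compound at five concentrations. TGI denotes the concentration required for complete inhibition of growth.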

What was measured:
Experiment in all cases: growth of human tumour cells (NCI), 48 h
[1] = system: BT-549 breast
[2] = system: HCT-116 colon
[3] = system: KM12 colon
[4] = system: SR leukemia
[5] = system: 786-0 renal
[6] = system: TK-10 renal
[7] = system: SF-539 CNS
[8] = system: SNB-19 CNS
[9] = system: NCI/ADR-RES ovarian
[10] = system: HT29 colon
[11] = system: ACHN renal
[12] = system: UO-31 renal
[13] = system: UACC-257 melanoma
[14] = system: LOX IMVI melanoma
[15] = system: HOP-92 NSCLC
[16] = system: SW-620 colon
[17] = system: SF-268 CNS
[18] = system: SK-OV-3 ovarian
[19] = system: NCI-H522 lung
[20] = system: OVCAR-8 ovarian
[21] = system: U251 CNS
[22] = system: CCRF-CEM leukemia
[23] = system: PC-3 prostate
[24] = system: HS 578T breast
[25] = system: OVCAR-3 ovarian
[26] = system: HCC-2998 colon
[27] = system: MDA-MB-231 breast
[28] = system: NCI-H460 lung
[29] = system: CAKI-1 renal
[30] = system: SF-295 CNS
[31] = system: DU-145 prostate
[32] = system: SN12C renal
[33] = system: SNB-75 CNS
[34] = system: EKVX NSCLC
[35] = system: SK-MEL-2 melanoma
[36] = system: HL-60(TB) leukemia
[37] = system: RXF 393 renal
[38] = system: NCI-H23 lung
[39] = system: A498 renal
[40] = system: MCF7 breast
[41] = system: MDA-N
[42] = system: MALME-3M melanoma
[43] = system: M14 melanoma
[44] = system: A549 NSCLC
[45] = system: OVCAR-4 ovarian
[46] = system: SK-MEL-5 melanoma
[47] = system: RPMI-8226 leukemia
[48] = system: HOP-62 NSCLC
[49] = system: OVCAR-5 ovarian
[50] = system: K-562 leukemia
[51] = system: HCT-15 colon
[52] = system: T-47D breast
[53] = system: SK-MEL-28 melanoma
[54] = system: COLO 205 colon
[55] = system: MOLT-4 leukemia
[56] = system: NCI-H226 lung
[57] = system: IGROV1 ovarian
[58] = system: UACC-62 melanoma
[59] = system: MDA-MB-435

In the case of `COC(=O)CN(CC(O)C(NC(C)=O)C(O)C=O)C(=O)OCc1ccccc1` (stereo not drawn), the TGI [1] is reported as over 100 µM, the TGI [2] is reported as over 100 µM and the TGI [3] is reported as over 100 µM. It also gave a TGI [4] of over 100 µM, a TGI [5] of over 100 µM and a TGI [6] of over 100 µM. For the same molecule, the TGI [7] was over 100 µM, the TGI [8] was over 100 µM and the TGI [9] was over 100 µM. The TGI [10] was over 100 µM, the TGI [11] was over 100 µM and the TGI [12] was over 100 µM. For the same molecule, the TGI [13] was over 100 µM, the TGI [14] was over 100 µM and the TGI [15] was over 100 µM. The TGI [16] was over 100 µM, the TGI [17] was over 100 µM and the TGI [18] was over 100 µM. It also gave a TGI [19] of over 100 µM, a TGI [20] of over 100 µM and a TGI [21] of over 100 µM. The TGI [22] was over 100 µM, the TGI [23] was over 100 µM and the TGI [24] was over 100 µM. The TGI [25] was over 100 µM, the TGI [26] was over 100 µM and the TGI [27] was over 100 µM. For the same molecule, the TGI [28] was over 100 µM, the TGI [29] was over 100 µM and the TGI [30] was over 100 µM. The TGI [31] was over 100 µM, the TGI [32] was over 100 µM and the TGI [33] was over 100 µM. It also gave a TGI [34] of over 100 µM, a TGI [35] of over 100 µM and a TGI [36] of over 100 µM. For the same molecule, the TGI [37] was over 100 µM, the TGI [38] was over 100 µM and the TGI [39] was over 100 µM. For the same molecule, the TGI [40] was over 100 µM, the TGI [41] was over 100 µM and the TGI [42] was over 100 µM. For the same molecule, the TGI [43] was over 100 µM, the TGI [44] was over 100 µM and the TGI [45] was over 100 µM. It also gave a TGI [46] of over 100 µM, a TGI [47] of over 100 µM and a TGI [48] of over 100 µM. The TGI [49] was over 100 µM, the TGI [50] was over 100 µM and the TGI [51] was over 31.6 µM. It also gave a TGI [52] of over 100 µM, a TGI [53] of over 100 µM and a TGI [54] of over 100 µM. The TGI [55] was over 100 µM, the TGI [56] was over 100 µM and the TGI [57] was over 100 µM. The TGI [58] was over 100 µM and the TGI [59] was over 100 µM.
In the case of `O=C1C[C@H](COCc2ccccc2)NC(=O)C[C@H](COCc2ccccc2)NC(=O)C[C@H](COCc2ccccc2)N1`, the TGI [1] is reported as over 100 µM, the TGI [2] is reported as over 100 µM and the TGI [3] is reported as over 100 µM. The TGI [4] was over 100 µM, the TGI [5] was over 100 µM and the TGI [6] was 41.1 µM. It also gave a TGI [7] of 75.1 µM, a TGI [8] of over 100 µM and a TGI [9] of over 100 µM. The TGI [10] was over 100 µM, the TGI [11] was over 100 µM and the TGI [12] was over 100 µM. For the same molecule, the TGI [13] was over 100 µM, the TGI [14] was over 100 µM and the TGI [15] was 35.4 µM. For the same molecule, the TGI [16] was over 100 µM, the TGI [17] was over 100 µM and the TGI [18] was 57.3 µM. It also gave a TGI [19] of over 100 µM, a TGI [20] of over 100 µM and a TGI [21] of over 100 µM. It also gave a TGI [22] of over 100 µM, a TGI [23] of over 100 µM and a TGI [24] of over 100 µM. For the same molecule, the TGI [25] was over 100 µM, the TGI [26] was over 100 µM and the TGI [27] was 85.2 µM. It also gave a TGI [28] of over 100 µM, a TGI [29] of over 100 µM and a TGI [30] of 89.2 µM. It also gave a TGI [31] of over 100 µM, a TGI [32] of over 100 µM and a TGI [33] of 8.27 µM. It also gave a TGI [34] of over 100 µM, a TGI [35] of over 100 µM and a TGI [36] of over 100 µM. It also gave a TGI [37] of 27.1 µM, a TGI [38] of over 100 µM and a TGI [39] of 42 µM. The TGI [40] was over 100 µM, the TGI [41] was over 100 µM and the TGI [42] was over 100 µM. It also gave a TGI [43] of over 100 µM, a TGI [44] of over 100 µM and a TGI [45] of over 100 µM. The TGI [46] was over 100 µM, the TGI [47] was over 100 µM and the TGI [48] was over 100 µM. For the same molecule, the TGI [49] was over 100 µM, the TGI [50] was over 100 µM and the TGI [51] was over 100 µM. For the same molecule, the TGI [52] was over 100 µM, the TGI [53] was over 100 µM and the TGI [54] was over 100 µM. The TGI [55] was over 100 µM, the TGI [56] was over 100 µM and the TGI [57] was over 100 µM. The TGI [58] was over 100 µM and the TGI [59] was over 100 µM.
